Measurements reported in patent publication US8461078B2 (priority 2009, dated 2013).

Legend:
Phytophthora capsici = test: In vitro fungitoxicity (growth inhibition) against Phytophthora capsici in copper-minus AS and copper-plus AS medium; type: cell-based; conditions: CuCl2, 50 uM; no test compound; across experiments
Protocol: In vitro fungitoxicity assays against Phytophthora capsici were conducted using the asparagine-sucrose (AS) medium described in Canadian Journal of Microbiology 1961, 7, 15-25, except that copper micronutrient, normally included as CuSO4, was omitted. The medium, termed “copper-minus AS”, was prepared by dissolving 2 g asparagine, 0.43 g KH2PO4, 0.3 g K2HPO4, 0.4 mL of a 0.5 mg/mL thiamine-HCl solution and 15 g sucrose in 1 liter of deionized water and treating the solution with 0.5 g Chelex 100 resin (Bio-Rad Analytical grade, 50-100 mesh, sodium form, cat #142-2822) by stirring at room temperature for 1 h. The pH was adjusted to 6.4, then MgSO4.7H2O (100 μg/mL), FeSO4.7H2O (1 μg/mL), CaCl2 (50 μg/mL), ZnSO4.7H2O (1 μg/mL), NaMoO4.2H2O (0.2 μg/mL) and MnCl2.4H2O (0.2 μg/mL) were added and the entire medium was sterilized by filtration. […]
Phytophthora capsici was grown on petri plates, 9 cm in diameter, containing 15 mL V-8 agar, pH 7.0, containing 200 mL V-8 juice, 4 g CaCO3, and 20 g agar per liter. […] Microtiter plates were inoculated with 100 μL of spore suspension and incubated at 25° C. for 48 h before assessing fungal growth by measuring light scattering in a NepheloStar plate reader. Growth inhibition was determined by comparing growth in the presence of test compound with growth in control wells lacking test compound. […]

Phytophthora infestans = type: in vivo, Phytophthora infestans on tomato plant; conditions: 50 ppm hydrazone with 50 μM CuCl2.2H2O; applied 24 h before inoculation; assessed 7 days after inoculation; tomato
[1] = tested on: Leptosphaeria nodorum (LEPTNO); test: In vitro fungitoxicity (growth inhibition) against Leptosphaeria nodorum in copper-minus and copper-plus medium; type: cell-based; conditions: 0.05 μg/mL, 72 h at 25° C.; for LEPTNO % Inhn. Plus Copper Observed: copper-plus medium (CuCl2, 10 μM); for inhibition of growth at 0.05 µg/mL: Parastagonospora nodorum, read-out: LEPTNO % Inhn. Minus Copper Observed
Protocol: In vitro fungitoxicity assays against Leptosphaeria nodorum (LEPTNO) were conducted using the liquid growth medium described by Coursen and Sisler (American Journal of Botany 1960, 47, 541-549) except that copper micronutrient, normally included as CuSO4, was omitted. The medium, termed “copper-minus”, was prepared by dissolving 10 g glucose, 1.5 g K2HPO4, 2 g KH2PO4 and 1 g (NH4)2SO4 in 1 liter of deionized water and treating the solution with 0.5 g Chelex 100 resin (Bio-Rad Analytical grade, 50-100 mesh, sodium form, cat #142-2822) by stirring at room temperature for 1 h. MgSO4.7H2O (0.5 g) was added, and stirring was continued for a further hour. Trace elements (minus CuSO4), and vitamins described by Coursen and Sisler were added from concentrated stock solutions and the entire medium was sterilized by filtration. Medium containing copper was prepared by adding CuCl2.2H2O to the copper-minus medium at 20 μM. Test compounds were dissolved in dimethylsulfoxide (DMSO) then dilutions in copper-minus and copper-plus growth media were prepared as 100 μL aliquots in flat-bottomed 96-well microtiter plates.
LEPTNO was grown on potato dextrose agar in 9 cm diameter petri dishes for 7 days. Sterile deionized water (20 mL) was added to a culture plate and spores suspended by scraping the surface gently with a sterile plastic loop. The resulting suspension was filtered through a double layer of sterile cheesecloth. Filtered spore suspension (5 mL) was centrifuged in a bench centrifuge at 2000 rpm for 2 min. The resulting spore pellet was resuspended in 10 mL sterile deionized water (which had been treated with Chelex 100 resin using 0.5 g resin per liter of water by stirring at room temperature for 1 h), and recentrifuged. The spores were resuspended in copper-minus medium, and the suspension adjusted to 2×10^5 spores per mL. Microtiter plates were inoculated with 100 μL of this spore suspension and the plates incubated at 25° C. for 72 h before assessing fungal growth by measuring light scattering in a NepheloStar plate reader. Growth inhibition was determined by comparing growth in the presence of test compound with growth in control wells lacking test compound.
Results for growth inhibition by test compounds in copper-plus medium (“% Inhn Plus Copper Observed”) were compared with predicted values (“% Inhn Plus Copper Predicted”) that were calculated using the formula set forth by S. R. Colby in Weeds 1967, 15, 20-22 based on results obtained for the same compounds in copper-minus medium (“% Inhn Minus Copper Observed”) and the inhibition attributed to copper chloride alone, as determined by comparing growth in copper-minus and copper-plus media without any test compound across experiments. Results illustrate that hydrazones and copper produce a synergistic fungitoxic effect towards LEPTNO.

[2] = tested on: Staphylococcus aureus, Escherichia coli, Aspergillus niger and A. flavus; conditions: literature report (Proc. Natl. Acad. Sci. India 1991); cited from earlier work

SMILES | TLB % Control (Phytophthora infestans) [%] | LEPTNO % Inhn. Plus Copper Observed [1] [%] | inhibition of growth at 0.05 µg/mL ([1]; copper-minus medium) [%] | further results
O.O.[Cl][Cu][Cl] [CuCl2, CuCl2.2H2O, reference compound] |  |  |  | % Inhn attributed to copper chloride alone (Phytophthora capsici) (Phytophthora capsici): 4.5 ± 7.9%
O=C(N/N=C/c1cc(Cl)cc(Cl)c1O)c1cc(Cl)ccc1Br [Compound 36] | 70.9 | 92.5 | 0 | 
O=C(N/N=C/c1cc(Br)cc(Br)c1O)c1cc(Cl)ccc1Br [Compound 37] | 68.4 | 97.9 | 34.5 | 
O=C(N/N=C/c1cc(Cl)ccc1O)c1ccc(C(F)(F)F)cc1 [Compound 33] |  |  |  | LEPTNO % Inhn. Minus Copper Observed ([1]; copper-minus medium): 20.7%
O=C(NN=Cc1ccccc1O)c1ccccc1O [o-hydroxybenzaldehyde-N-salicyloylhydrazone] |  |  |  | Antimicrobial activity [2]: Antimicrobial activity has been reported
